The results in this text go back to PubChem BioAssay (NCI).

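96-well plates; 48 h exposure; 5 concentrations. Endpoints by linear interpolation between flanking doses. Not reached: highest tested concentration assigned. GI50 = concentration required for 50% inhibition of growth. TGI: total growth inhibition.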 Bounds are passed on as bounds.

Among the test systems are A498 renal; A549 NSCLC; KM12 colon; RPMI-8226 leukemia; SF-268 CNS; SF-539 CNS; SK-MEL-28 melanoma; U251 CNS; SW-620 colon.
Assay in all cases: NCI-60 cell line screen, 48 h

As to `Cc1cc(NCCCCCCCCNc2cc(C)nc3cc(N)ccc23)c2ccc(N)cc2n1`, the TGI is > 100 µM in the experiment with A498 renal; > 100 µM with A549 NSCLC; 37.8 µM with KM12 colon; > 100 µM with RPMI-8226 leukemia; > 100 µM with SF-268 CNS; 41.2 µM in the experiment on SF-539 CNS. Also, the TGI amounted to 48.3 µM with SK-MEL-28 melanoma and 24.3 µM with U251 CNS.
With `N#CCCN(c1ccc(C=Nc2ccccc2)cc1)S(=O)(=O)c1ccccc1`, the TGI with A498 renal, with A549 NSCLC, with KM12 colon, with RPMI-8226 leukemia, with SF-268 CNS and in the experiment with SF-539 CNS was > 100 µM throughout. Besides, the TGI in the experiment with SK-MEL-28 melanoma and in the experiment on SW-620 colon was > 100 µM throughout.
With `Cc1nc(-n2nc(-c3ccccc3)cc2-c2ccccc2)sc1C(=O)/C=C/c1ccc(/C=C/C(=O)c2sc(-n3nc(-c4ccccc4)cc3-c3ccccc3)nc2C)cc1`, the TGI was > 100 µM in the experiment with A549 NSCLC; 35.8 µM in the experiment with KM12 colon; 51.6 µM with SF-268 CNS; 33.7 µM with SF-539 CNS; 41.8 µM in the experiment on SK-MEL-28 melanoma; > 100 µM with SW-620 colon. The TGI in the experiment with U251 CNS worked out at 34.3 µM.
As for `C[C@@H](NC1CCCC[C@H]1O)c1ccccc1` (some centres not stated), the TGI with A498 renal, in the experiment on A549 NSCLC, with KM12 colon, in the experiment on RPMI-8226 leukemia, with SF-268 CNS and in the experiment with SF-539 CNS was > 100 µM in each case. Further, the TGI in the experiment with SK-MEL-28 melanoma, in the experiment on SW-620 colon and in the experiment with U251 CNS was > 100 µM throughout.
On to `O=C(NCCCCCCCCCCCCNC(=O)c1cccc2ccccc12)c1cccc2ccccc12`, for which the TGI in the experiment on A498 renal was > 74.4 µM; in the experiment on A549 NSCLC, > 100 µM; in the experiment on KM12 colon, > 100 µM; in the experiment with RPMI-8226 leukemia, > 100 µM; in the experiment with SF-268 CNS it was > 100 µM; with SF-539 CNS, 4.73 µM. Moreover, the TGI with SK-MEL-28 melanoma is > 100 µM; with SW-620 colon it was > 100 µM; in the experiment with U251 CNS, > 59.5 µM.
In the case of `CN1c2ccccc2N(C(=O)c2ccc([N+](=O)[O-])cc2)C(CC(=O)O)c2cccn21` (configuration not stated), the TGI in the experiment on A498 renal, in the experiment on A549 NSCLC, in the experiment with KM12 colon, in the experiment with RPMI-8226 leukemia, in the experiment with SF-268 CNS and in the experiment with SF-539 CNS was > 100 µM throughout. Also, the TGI in the experiment with SK-MEL-28 melanoma and in the experiment on SW-620 colon was > 100 µM each time.
Consider `Cn1cc(C(=O)c2ccccc2)c2ccccc2c1=O`, for which the TGI with A549 NSCLC, in the experiment with KM12 colon, in the experiment with RPMI-8226 leukemia, in the experiment with SF-268 CNS, in the experiment on SF-539 CNS and in the experiment on SK-MEL-28 melanoma was > 100 µM in each case. Moreover, the TGI in the experiment with SW-620 colon is > 100 µM.
As for `Nc1ncnc2c1ncn2[C@]1(CO)C=C(CO)C(O)C1O` (some centres not stated), the TGI in the experiment with A498 renal, in the experiment with A549 NSCLC, in the experiment on KM12 colon, in the experiment on RPMI-8226 leukemia, with SF-268 CNS and with SK-MEL-28 melanoma was > 100 µM in each case. The TGI with SW-620 colon and in the experiment on U251 CNS was > 100 µM in each case.
As to `COc1ccc(C(c2cc(OC)c(OC)c(OC)c2)n2ccnc2)cc1O` (configuration not stated), the GI50 was 0.304 µM in the experiment on A498 renal; 0.838 µM with A549 NSCLC; 0.389 µM in the experiment with KM12 colon; 0.385 µM in the experiment with RPMI-8226 leukemia; 0.731 µM with SF-268 CNS; 0.217 µM with SF-539 CNS. The GI50 in the experiment with SW-620 colon is 0.387 µM; in the experiment on U251 CNS it was 0.391 µM. Moreover, the TGI in the experiment on A498 renal is 0.941 µM; in the experiment on A549 NSCLC, > 100 µM; in the experiment with KM12 colon, > 100 µM; with RPMI-8226 leukemia, > 100 µM; in the experiment with SF-268 CNS, > 100 µM; with SF-539 CNS it was 0.552 µM. Besides, the TGI in the experiment with SW-620 colon and in the experiment with U251 CNS was > 100 µM in each case.
As for `O=C(N/C(=C\c1ccc(Cl)cc1)c1nc2ccccc2[nH]1)c1ccccc1`, the TGI in the experiment on A498 renal is 52.4 µM; in the experiment on A549 NSCLC, 56.1 µM; with KM12 colon, 33.6 µM; in the experiment on RPMI-8226 leukemia it was 42.6 µM; with SF-268 CNS, 38.5 µM; in the experiment with SF-539 CNS, 31.1 µM. The TGI was determined as 36.4 µM with SK-MEL-28 melanoma, 64 µM with SW-620 colon and 53.1 µM with U251 CNS.
In the case of `COc1ccc(C/C(=N/O)C(=O)NCCc2cc(Br)c(OCCCN(C)C)c(Br)c2)cc1Br`, the TGI in the experiment with A549 NSCLC turned out to be 38.4 µM; in the experiment with KM12 colon it was 34.9 µM; in the experiment with SF-268 CNS, 39.4 µM; in the experiment on SF-539 CNS, 29.6 µM; with SK-MEL-28 melanoma, 35.2 µM; in the experiment on SW-620 colon, 31.8 µM. This molecule also showed a TGI in the experiment on U251 CNS of 32.8 µM.
Take `N#Cc1c(-c2ccc(Cl)c(Cl)c2)c(-c2ccc(Cl)c(Cl)c2)nn(CC(=O)O)c1=O`: the TGI with A549 NSCLC, with KM12 colon, in the experiment on RPMI-8226 leukemia, in the experiment on SK-MEL-28 melanoma, in the experiment with SW-620 colon and in the experiment on U251 CNS was > 100 µM in each case.
As to `O=C(/C=C/c1cc(Cl)cc(Cl)c1O)c1cccc(O)c1`, the TGI in the experiment on A498 renal is > 100 µM; in the experiment with A549 NSCLC, > 100 µM; with KM12 colon, > 100 µM; in the experiment on RPMI-8226 leukemia it was > 100 µM; with SF-268 CNS, > 100 µM; in the experiment with SF-539 CNS it was 73.3 µM. For the same molecule, the figures for the TGI in the experiment on SK-MEL-28 melanoma, with SW-620 colon and in the experiment with U251 CNS were > 100 µM, > 100 µM and 80.4 µM, respectively.
Regarding `COC(=O)C(C(=O)C(=O)Nc1c(C)cccc1C)c1cnc2ccccc2n1` (configuration not stated), the TGI in the experiment on A498 renal, in the experiment with A549 NSCLC, in the experiment on KM12 colon, with RPMI-8226 leukemia, in the experiment on SF-268 CNS and with SK-MEL-28 melanoma was > 100 µM each time. Moreover, the TGI in the experiment with SW-620 colon and in the experiment on U251 CNS was > 100 µM in each case.
Take `CN(C)C=Nc1ccn(CCO)c(=O)n1`: the TGI with A498 renal, in the experiment on A549 NSCLC, in the experiment with KM12 colon, in the experiment on SF-268 CNS, with SF-539 CNS and in the experiment on SK-MEL-28 melanoma was > 100 µM each time. The TGI in the experiment with SW-620 colon and in the experiment with U251 CNS was > 100 µM each time.
